Assay results published in US20230414715A1, “TRAIL COMPOUNDS FOR REDUCING CANCER TREAMENT SIDE EFFECTS” (BROWN UNIVERSITY, priority 2022, published 2023).

Tests used:
[1] = system: serum cytokines; assay: Serum cytokine analysis (Luminex) of irradiated mice; format: in vivo, mouse; conditions: treated versus control
Description: (§1) Animal studies were carried out at Brown University facilities with approval from Brown University IACUC. C57B1/6 mice (Taconic), mice with bi-allelic loss of TRAIL Death Receptor-(DR5-/-) in a C57B1/6 background, and mice with bi-allelic loss of TRAIL (TRAIL -/-) in a C57B1/6 background were given a single whole-thorax x-ray (Philips RT250) irradiation dose of 20 Gy with shielding of other organs. 8-15-week-old male and female mice of each genotype were used. […] Treatment was continued for two weeks, where TLY012 was administered twice a week and ONC201 was administered once a week. For each genetic background, two mice received a control PO, two mice received TLY012 IP, and two mice received ONC201 PO. Mice were weighed twice a week, and 13 days post-irradiation all mice were euthanized. Organs were harvested from the mice and 600 μL of blood was collected via cardiac puncture for serum cytokine analysis. Organs were preserved in 10% formalin then embedded in paraffin and sectioned at a distance of 5 μm. […] TRAIL-/- female mice were also subjected to a survival study with a single whole-thorax radiation doses of 15 Gy or 18 Gy treated with the same regimen of TLY012 or control (n=2/radiation dose/treatment) (FIG. 3B). In order to determine the lethal dose of radiation for C57B1/6 mice, female C57B1/6 mice were treated with a single dose of whole-thorax irradiation of 25 Gy in a survival study where they were treated with either TLY012 or remained control (n=6/treatment) (FIG. 3C).
All mouse serum samples were analyzed by a custom R&D systems Murine Premixed Multi- Analyte Kit (R&D Systems, Inc., Minneapolis, MN). The panel was run on a Luminex 200 Instrument (Luminex Corporation, Austin, TX) according to the manufacturer's instructions. Murine serum levels of Angiopoietin-2, BAFF/BLyS/TNFSF13B, CCL2/JE/MCP-1, CCL3/MIP-1 alpha, CCL4/MIP-1 beta, CCL5/RANTES, CCL7/MCP-3/MARC, CCL11/Eotaxin, CCL12/MCP-5, CCL20/MIP-3 alpha, CCL21/6Ckine, CCL22/MDC, Chitinase 3-like 1, CXCL1/GRO alpha/KC/CINC-1, CXCL10/IP-10/CRG-2, CXCL12/S DF- 1 alpha, Dkk-1, FGF basic/FGF2/bFGF, GDF-15, GM-CSF, Granzyme B, IFN-gamma, IGF-I/IGF-1, IL-1 alpha/IL-1F1, IL-1 beta/IL-1F2, IL-2, IL-3, IL-4, IL-6, IL-7, IL-10, IL-13, IL-16, IL-17/IL-17A, IL-27, IL-33 M-CSF, MMP-3, MMP-8, MMP-12, Prolactin, TWEAK/TNFSF12, VEGF, and VEGFR2/KDR/Flk-1 were measured. Analyte values were reported in picograms per milliliter (pg/mL). […] Latent TGF-β was activated in samples using 1 N HCl and samples were neutralized with 1.2 N NaOH/0.5 M HEPES. Samples were assayed immediately after neutralization.

[2] = system: TRAIL-/- mice; assay: Radiation pneumonitis after whole-thorax x-ray irradiation, H&E of lung, TRAIL-null mice; format: in vivo, mouse; conditions: TRAIL-/- male or female mice, 20 Gy thoracic irradiation, two weeks treatment, FIG. 2A, B
Description: as §1, with “In order to determine the lethal dose of radiation for C57B1/6 mice, female C57B1/6 mice were treated with a single dose of whole-thorax irradiation of 25 Gy in a survival study where they were treated with either TLY012 or remained control (n=6/treatment) (FIG. 3C).” left out

[3] = system: female C57B1/6 mice; assay: 48-hour post-radiation TLY012 treatment; format: in vivo, mouse; conditions: 20 Gy, 10 mg/kg twice a week, preliminary results
Excerpt: Mice were weighed twice a week, and then euthanized on day 13 post-irradiation. […] H&E-stained slides of the lungs were imaged at 20× magnification.

[4] = system: lung tissue in irradiated C57B1/6 mice; assay: Immunohistochemistry of irradiated lung tissue; format: in vivo, mouse
Excerpt: Paraffin embedded sections of tissue were deparaffinized in xylene and rehydrated through graded ethanol solutions to phosphate-buffered saline (PBS). Heat-induced antigen retrieval (in 0.01 M citrate buffer; pH 6.0), endogenous peroxidase blocking (3% H202), and blocking were done using a standard protocol. […] Slides were developed with diaminobenzidine substrate (Vector Laboratories SK-4100) and counterstained with hematoxylin (Richard Allen Scientific). Slides were scanned (Olympus VS200) and representative brightfield images were taken and analyzed with OlyVIA software.

[5] = system: duodenum, liver or heart; assay: H&E of duodenum, liver and heart of irradiated, treated mice; conditions: 20 Gy irradiated mice, 2 weeks treatment
Description: as §1, with “In order to determine the lethal dose of radiation for C57B1/6 mice, female C57B1/6 mice were treated with a single dose of whole-thorax irradiation of 25 Gy in a survival study where they were treated with either TLY012 or remained control (n=6/treatment) (FIG. 3C).” left out

[6] = irradiated rescued versus irradiated control lung tissues
[7] = normal or inflamed lung, treated versus irradiated control

TLY012: N-terminal PEGylated recombinant human TRAIL; PEGylated trimeric TRAIL formulation
CCL3/MIP-lalpha serum level [1]: increased | CXCL1 serum level [1]: increased | FGF basic serum level [1]: increase | GDF-15 serum level [1]: increased | IL6 serum level [1]: increased | MMP-8 serum level [1]: increased | rescue from radiation pneumonitis [2]: rescued | rescue when treatment starts 48 hours after irradiation [3]: some rescue is possible | NFkB [4, 6]: no differences | proliferation [4, 6]: no differences | DNA double strand break marker gamma-H2AX [4, 7]: no difference | T-cell infiltration (CD3-epsilon) [4, 7]: no difference | collagen in lungs ([4]; rescued lungs versus irradiated control): less collagen | toxicities in duodenum, liver or heart [5]: No obvious toxicities
